According to US20100247707A1, “DIPEPTIDES AS FEED ADDITIVES” (EVONIK DEGUSSA GmbH, priority 2009, published 2010):

Experiments:
[1] = tested on: Litopenaeus vannamei; details: omnivorous shrimps Litopenaeus vannamei, Forster and Dominy 2006; cited from earlier work
[2] = tested on: digestive enzymes from whiteleg shrimps; assay: In vitro digestion of non-natural dipeptides LD-I / DL-II with digestive enzymes from whiteleg shrimps; assay type: in vitro ADME, Litopenaeus vannamei; details: whiteleg shrimp enzymes; for portion of dipeptide cleaved: after 5 hours, in vitro reaction conditions; for speed of cleavage / digestion: non-natural dipeptides
Procedure: (§1) For this, the enzymes were isolated from the digestive tracts of the fishes and shrimps. The chemically synthesized dipeptides L-EAA-D-Met (LD-I) and D-Met-L-EAA (DL-II) were then reacted with the enzyme solutions obtained. For better comparability of the digestibilities of dipeptides of various species, identical conditions were selected for the in vitro digestion studies (37° C., pH 9). All non-natural dipeptides L-EAA-D-Met (LD-I) and D-Met-L-EAA (DL-II) are cleaved by digestive enzymes of the omnivorous mirror carp (see FIG. 7), of the herbivorous grass carp (see FIG. 8), of the carnivorous rainbow trout (see FIG. 11), of the omnivorous whiteleg shrimp (see FIG. 10) and of the chicken (see FIG. 17). The cleavages of D-Met-L-EAA (DL-II) proceed somewhat more slowly than the cleavages of the analogous L-EAA-D-Met (LD-I) dipeptides. With digestive enzymes of the Tilapia (see FIG. 9), in contrast, D-Met-L-EAA (DL-II) could be cleaved more quickly than L-EAA-D-Met (LD-I) dipeptides. […] After just 5 hours, under in vitro reaction conditions the bulk of the lysine-containing dipeptides had been cleaved by all of the digestive enzymes used.
a) Isolation of the Digestive Enzymes from Whiteleg Shrimps (Litopenaeus vannamei)
The digestive enzymes were isolated according to the method of Ezquerra and Garcia-Carreno (J. Food Biochem. 1999, 23, 59-74). For this, the hepatopancreas was removed from five kilograms of whiteleg shrimps (Litopenaeus vannamei) and comminuted in a mixer together with crushed ice. Further processing was carried out similarly to Example 18.
(§2) b) Procedure for the In Vitro Digestion Studies
The in vitro investigations were carried out similarly to Example 19 (see Table 8, FIG. 10).

[3] = tested on: digestive enzymes from mirror carp; assay: In vitro digestion of non-natural dipeptides LD-I / DL-II with digestive enzymes from mirror carp; assay type: in vitro ADME, Cyprinus carpio morpha noblis; details: for portion of dipeptide cleaved: after 5 hours, in vitro reaction conditions; for speed of cleavage / digestion: non-natural dipeptides
Procedure: as §1
a) Isolation of the Digestive Enzymes from Mirror Carp (Cyprinus carpio morpha noblis)
The digestive enzymes were isolated according to the method of EID and MATTY (Aquaculture 1989, 79, 111-119). For this, the intestines were removed from five one-year-old mirror carp (Cyprinus carpio morpha noblis) and processed as described in Example 18.
as §2
(§3) D-Met-L-EAA (DL-II) or L-EAA-D-Met (LD-I) was taken up in TRIS/HCl buffer solution and the enzyme solution was added. As comparison and to assess the rate of purely chemical cleavage, a blank without enzyme solution was prepared in each case (see Table 4). A sample was taken from time to time and its composition was detected and quantified by means of a calibrated HPLC. The conversion was determined as the quotient of the area of methionine and the area of D-Met-L-EAA (DL-II) or L-EAA-D-Met (LD-I) (see FIG. 7).

[4] = tested on: digestive enzymes of the Tilapia; assay: In vitro digestion of non-natural dipeptides LD-I / DL-II with digestive enzymes from Tilapia; assay type: in vitro ADME; details: for portion of dipeptide cleaved: after 5 hours, in vitro reaction conditions; for speed of cleavage / digestion: non-natural dipeptides
Procedure: as §1

[5] = tested on: digestive enzymes of the herbivorous grass carp; assay: In vitro digestion of non-natural dipeptides LD-I / DL-II with digestive enzymes from grass carp; assay type: in vitro ADME; details: for portion of dipeptide cleaved: after 5 hours, in vitro reaction conditions; for speed of cleavage / digestion: non-natural dipeptides
Procedure: as §1

[6] = tested on: digestive enzymes from chicken; assay: In vitro digestion of non-natural dipeptides LD-I / DL-II with digestive enzymes from chicken; assay type: in vitro ADME; details: for portion of dipeptide cleaved: after 5 hours, in vitro reaction conditions; for speed of cleavage / digestion: non-natural dipeptides
Procedure: as §1
a) Isolation of the Digestive Enzymes from Chicken
The digestive enzymes were isolated according to the method of EID and MATTY (Aquaculture 1989, 79, 111-119). For this, the intestines were removed from a chicken and processed as described in Example 24.
as §2
as §3, with “case.” for “case (see Table 4).”, “(see Table 10,” for “(see”, “17).” for “7).”

[7] = tested on: digestive enzymes from rainbow trout; assay: In vitro digestion of non-natural dipeptides LD-I / DL-II with digestive enzymes from rainbow trout; assay type: in vitro ADME, Oncorhynchus mykiss; details: for portion of dipeptide cleaved: after 5 hours, in vitro reaction conditions; for speed of cleavage / digestion: non-natural dipeptides
Procedure: as §1
a) Isolation of the Digestive Enzymes from Rainbow Trout (Oncorhynchus mykiss)
The digestive enzymes were isolated according to the method of EID and MATTY (Aquaculture 1989, 79, 111-119). For this, the intestines were removed from six one-year-old rainbow trout (Oncorhynchus mykiss) and processed as described in Example 18.
as §2
The in vitro investigations were carried out similarly to Example 19 (see Table 6, FIG. 11).

[8] = tested on: ruminants; details: in ruminants, WO00/28835; cited from earlier work

Row | Compound | effectiveness in feeding tests [1] | portion of dipeptide cleaved [2] | speed of cleavage / digestion [2] | portion of dipeptide cleaved [3] | speed of cleavage / digestion [3] | portion of dipeptide cleaved [4] | speed of cleavage / digestion [4] | portion of dipeptide cleaved [5] | speed of cleavage / digestion [5] | portion of dipeptide cleaved [6] | speed of cleavage / digestion [6] | portion of dipeptide cleaved [7] | speed of cleavage / digestion [7] | bioavailability [8]
1 | CSCCC(N)C(=O)O (racemic) [DL-methionine] | equally as effective as L-methionine |  |  |  |  |  |  |  |  |  |  |  |  | 
2 | L-Lys-D-Met×2HCl [LD-Ie] |  | bulk | particularly quickly | bulk | particularly quickly | bulk | particularly quickly | bulk | particularly quickly | bulk | particularly quickly | bulk | particularly quickly | 
3 | CSCCC(O)C(=O)OC(C)C (racemic) [HMBi, racemic iso-propyl ester of MHA] |  |  |  |  |  |  |  |  |  |  |  |  |  | at least 50%
4 | CSCC[C@@H](N)C(=O)N[C@@H](CCCCN)C(=O)O.Cl.Cl (racemic) [DL-IIe, D-Met-L-Lys×2HCl] |  | bulk | particularly quickly | bulk | particularly quickly | bulk | particularly quickly | bulk | particularly quickly | bulk | particularly quickly | bulk | particularly quickly | 
